From patent US7582679B2, “Compositions containing solid ibuprofen concentrates and methods of making solid ibuprofen concentrates” (Pharmaceutics International Incorporated, priority 2006, dated 2009)

How the values were obtained:
[1] = Comparative dissolution of hard gelatin capsules, USP apparatus type II, purified water; format: physicochemical; details: size 1 hard gelatin capsule, 200 mg ibuprofen, paddle 50 rpm, 900 mL purified water
Procedure: Ibuprofen powder (supplied by BASF) was similarly filled manually into size 1 hard gelatin capsules to yield 200 mg ibuprofen per capsule.
Capsules were tested using a USP dissolution apparatus type II with a paddle speed of 50 rpm and 900 mL of purified water as a dissolution medium.

[2] = Angle of repose (flowability of powder); format: physicochemical
Procedure: The dried granules were lubricated with 0.25% w/w magnesium stearate and compressed using a Piccola 10 station rotary tablet press. The lubricated granules had angle of repose 26.56° compared with ibuprofen powder (supplied by BASF) having an angle of repose 48.01°. The resultant compressed tablets had hardness 6.1 kp and thickness 4.80 mm.

## CC(C)Cc1ccc(C(C)C(=O)O)cc1 (stereo not shown) [ibuprofen powder, ibuprofen]
[1]; 10 min
  % dissolution: 2.2%
[1]; 20 min
  % dissolution: 5.9%
[1]; 30 min
  % dissolution: 9.2%
[2]
  angle of repose: 48.01 °
